Paper PMC3390896, “The Distribution and Physiological Effects of the Myoinhibiting Peptides in the Kissing Bug, Rhodnius Prolixus” (Frontiers in Neuroscience, 2012)
Where two headings read alike, the source gives them in different places. Where a SMILES comes first, the peptide text is derived from it. Bridges are numbered along the chain shown (N, C = ends). Where no end group is shown, it is not given here.

What was measured:
R. prolixus hindgut = R. prolixus hindgut contraction assay (spontaneous contractions, force transducer); design: species or system Rhodnius prolixus; settings: mean of five to six preparations
Text: Hindguts from female adult R. prolixus were dissected under R. prolixus saline, leaving a small portion of the ventral cuticle attached to the posterior end. The preparation was placed in a shallow trough molded into a Sylgard-coated petri dish. The preparation was secured to the dish by pinning the cuticle using minuten pins. The anterior end of the hindgut was attached to an AE875 miniature force transducer (Aksjeselskapet Mikro-Elektronikk, Norway) using a strand of silk. Muscle activity was monitored on a linear flat-bed chart recorder connected to a force transducer through an amplifier. Isolated hindguts were maintained in 200 μL of saline at room temperature. Working concentrations of Rhopr-MIP-4 or Rhopr-MIP-7 were applied by removing 100 μL of saline and replacing it with the same volume of peptide that yielded final concentrations of 10^−11 to 10^−6 M. The peptides were washed from the preparation using saline between trials. The effects of the peptides on hindgut contractions were monitored over a 5 min time period.
Responses to Rhopr-MIP-4 and Rhopr-MIP-7 were quantified by dividing the frequency of contractions during the second minute after application, by the frequency of contractions during the 1 min interval prior to peptide application.

[1] = biological target: T1, Drosophila melanogaster sex peptide receptor (Drome-SPR) (Drosophila melanogaster, UniProt Q8SWR3); experiment: Functional aequorin-based Drome-SPR assay in CHO-WTA11 cells; assay type: cell-based; settings: CHO cells coexpressing aequorin, Gα16 and Drosophila SPR; aequorin luminescence; three independent measurements done in triplicate
T1 construct: expressed in transfected cells; host or cells: CHO-WTA11 cells (expressing apoaequorin and Gα16)
T1 sequence (Q8SWR3 1-435): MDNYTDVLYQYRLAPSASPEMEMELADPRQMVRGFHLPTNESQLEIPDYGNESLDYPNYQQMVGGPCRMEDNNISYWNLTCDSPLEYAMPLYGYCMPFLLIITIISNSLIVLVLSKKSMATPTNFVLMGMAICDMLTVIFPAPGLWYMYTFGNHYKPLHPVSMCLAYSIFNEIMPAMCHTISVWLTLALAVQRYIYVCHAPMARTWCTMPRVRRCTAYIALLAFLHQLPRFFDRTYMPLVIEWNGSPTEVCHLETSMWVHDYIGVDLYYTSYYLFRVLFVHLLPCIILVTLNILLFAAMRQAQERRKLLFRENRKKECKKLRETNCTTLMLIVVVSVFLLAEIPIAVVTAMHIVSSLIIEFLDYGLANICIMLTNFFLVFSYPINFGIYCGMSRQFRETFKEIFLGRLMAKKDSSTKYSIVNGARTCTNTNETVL
Procedure: Drome-SPR expression vector (described by Poels et al., [2010]) transfected and mock transfected (negative control) CHO-WTA11 cells (expressing apoaequorin and Gα16) were grown until 90% confluency, detached using PBS with 100 μM EDTA, spun (6 min, 150 g) and resuspended at 5 × 10^6 cells/mL in D-MEM/F-12 without phenol red supplemented with 0.1% BSA. “Coelenterazine h” (Invitrogen) was added to a concentration of 5 μM and the cells were incubated in the dark at room temperature for 3–4 h. After coelenterazine loading, cells were diluted 10-fold and incubated for 30 min. Test compounds were dissolved in 50 μL D-MEM/F-12 supplemented with 0.1% BSA and dispensed in triplicate into the wells of a white 96-well plate. Light emission was recorded (Mithras LB940, Berthold) for 30 s immediately after injection of 50 μL cell suspension into each well. Cells were then lysed by a second injection of 50 μL 0.3% Triton X-100 and monitored during 8 s. Data were collected using MikroWin2000 (Mikrotek Laborsysteme Gmbh).

L. migratoria hindgut = settings: ref Schoofs et al., [1991]; cited from earlier work
Text: As shown in many insects (and as indicated by their name) MIPs are inhibitory of visceral muscle contraction. Thus, in R. prolixus, MIPs inhibit contractions of the hindgut in a dose-dependent manner. This is true for Rhopr-MIP-4 and for Rhopr-MIP-7. […] The thresholds for these Rhopr-MIPs were approximately the same. These threshold concentrations are lower than the threshold concentrations determined for the suppression of hindgut muscle contractions in L. migrator ...

[2] = biological target: T1, Drosophila melanogaster sex peptide receptor (Drome-SPR); design: method as in Poels et al., [2010]; settings: same aequorin assay; ref Poels et al., [2010]; cited from earlier work
Procedure: The activity profiles of Rhopr-MIP-4 and -7 were tested in the functional aequorin-based Drome-SPR assays (Figure 5).

[3] = frequency in second minute after application divided by frequency in 1 min before, read-out: IC50 for frequency of spontaneous hindgut contractions
[4] = isolated hindgut of female adult R. prolixus, saline, room temperature, read-out: IC50 for amplitude of spontaneous hindgut contractions

Compound `CC(C)C[C@H](NC(=O)[C@H](CO)NC(=O)[C@H](CC(N)=O)NC(=O)[C@H](Cc1c[nH]c2ccccc12)NC(=O)[C@H](C)N)C(=O)N[C@@H](Cc1c[nH]cn1)C(=O)NCC(=O)NCC(=O)N[C@@H](Cc1c[nH]c2ccccc12)C(N)=O` [Rhopr-MIP-7] (H-AWNSLHGGW-NH2) has an IC50 (R. prolixus hindgut; [3]) of ~0.02 µM, an IC50 (R. prolixus hindgut; [4]) of ~0.1 µM and an EC50 [1] of 0.00059 µM.

In the case of `CC(C)C[C@H](NC(=O)[C@H](CC(=O)O)NC(=O)[C@H](CO)NC(=O)[C@H](Cc1c[nH]c2ccccc12)NC(=O)[C@H](C)N)C(=O)N[C@@H](CCC(N)=O)C(=O)N[C@@H](CO)C(=O)N[C@@H](CO)C(=O)NCC(=O)N[C@@H](Cc1c[nH]c2ccccc12)C(N)=O` [Rhopr-MIP-4] (H-AWSDLQSSGW-NH2), the IC50 (R. prolixus hindgut; [3]) is reported as ~0.02 µM, the IC50 (R. prolixus hindgut; [4]) is reported as ~0.01 µM and the EC50 [1] is reported as 0.053 µM.

In the case of AWQDLNAGW-NH2 [Lom-MIP], the “threshold concentration for suppression of hindgut muscle contractions” value (L. migratoria hindgut) is given as 1.8 nM.

In the case of “Drome-SP: Drosophila sex peptide, 36 amino acids with a core W(X8)W and a C-terminal disulfide bridge (WEWPWNRKPTKFPIPSPNPRDKWCRLNLGPAWGGRC; disulfide 24-36 (inferred); UniProt P05623 20-55, looked up)”, the EC50 [2] is given as ~0.015 µM.
